Some test systems named below: Malme-3M; EKVX; NCI-H23; OVCAR-8; SR; SK-MEL-2; MOLT-4; OVCAR-5; RPMI-8226; RXF 393; HCT-15; ACHN; HT-29; 786-0; SN12C; SK-MEL-28; OVCAR-3; MDA-MB-231; MCF7.
Holding throughout (experiment): NCI-60 cell line screen, 48 h

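Each compound was tested at five concentrations against cells in 96-well plates for 48 hours. GI50 is the concentration that inhibits growth by half.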 Activity calls are given as the source filed them. Rule as the data show it: active = GI50 up to about 1.1 µM and inactive = higher.

As for `NC(=O)COc1ccccc1`, the GI50 with Malme-3M, with EKVX, in the assay with NCI-H23, in the assay with OVCAR-8, in the assay with SR and with SK-MEL-2 was > 100 µM (inactive) throughout. For the same compound, the GI50 in the assay with MOLT-4 is > 100 µM (inactive); in the assay on OVCAR-5, > 100 µM (inactive); with RPMI-8226, > 100 µM (inactive); with RXF 393 it was > 100 µM (inactive); with HCT-15, greater than 100 µM; in the assay on ACHN, > 100 µM (inactive). For the same compound, the GI50 in the assay on HT-29, in the assay with 786-0, with SN12C, with SK-MEL-28 and in the assay on OVCAR-3 was > 100 µM (inactive) in each case.

For the compound `Cc1[nH]c(=O)nc(NCCNCCO)c1C(=O)Nc1c2ccccc2nc2ccccc12`, the GI50 in the assay on Malme-3M, in the assay on EKVX, in the assay on NCI-H23, in the assay on OVCAR-8, in the assay on MDA-MB-231 and in the assay with SK-MEL-2 was > 100 µM (inactive) throughout. The GI50 was > 100 µM (inactive) in the assay on MOLT-4; > 100 µM (inactive) in the assay on OVCAR-5; > 100 µM (inactive) in the assay with RPMI-8226; > 100 µM (inactive) in the assay with RXF 393; greater than 100 µM in the assay on HCT-15; > 100 µM (inactive) with ACHN. Also, the GI50 in the assay on HT-29, in the assay on MCF7, with 786-0, with SN12C, in the assay on SK-MEL-28 and in the assay with OVCAR-3 was > 100 µM (inactive) in each case.

With `C(=N\c1ccc(-c2nc3ccccc3o2)cc1)/c1ccco1`, the GI50 in the assay with Malme-3M was 82.2 µM (inactive); in the assay on EKVX, 48.3 µM (inactive); in the assay with NCI-H23, 78.2 µM (inactive); with OVCAR-8 it was > 100 µM (inactive); in the assay on SR it was 65.9 µM (inactive); with SK-MEL-2 it was 87.1 µM (inactive). For the same compound, the GI50 was 29 µM (inactive) in the assay with MOLT-4; > 100 µM (inactive) with OVCAR-5; 0.0453 µM (active) with RPMI-8226; 39.7 µM (inactive) in the assay on RXF 393; 49.3 µM in the assay with HCT-15; 49.7 µM (inactive) with ACHN. For the same compound, the GI50 in the assay with HT-29 was 63.5 µM (inactive); in the assay on MCF7 it was 91.2 µM (inactive); with 786-0, 75.2 µM (inactive); with SN12C, 61.9 µM (inactive); with SK-MEL-28, > 100 µM (inactive).

As to `CC(=O)Oc1ccc(CO)cc1OC(C)=O`, the GI50 with Malme-3M is > 100 µM (inactive); with EKVX it was 32.2 µM (inactive); with OVCAR-8 it was > 100 µM (inactive); in the assay on SR, > 100 µM (inactive); in the assay on SK-MEL-2 it was > 100 µM (inactive); in the assay with MOLT-4, > 100 µM (inactive). Further, the GI50 in the assay with OVCAR-5 was > 100 µM (inactive); with RPMI-8226 it was 51.6 µM (inactive); with RXF 393, > 100 µM (inactive); in the assay with HCT-15 it was greater than 100 µM; in the assay on ACHN, > 100 µM (inactive); in the assay on HT-29, > 100 µM (inactive). For the same compound, the GI50 in the assay with 786-0, in the assay on SN12C, with SK-MEL-28 and with OVCAR-3 was > 100 µM (inactive) each time.

`CCC1=CCN(c2cc(C)ccn2)OC1c1ccccc1` (centres undefined): the GI50 in the assay with Malme-3M is 26.5 µM (inactive); in the assay on EKVX, 56.4 µM (inactive); in the assay with NCI-H23, 25.4 µM (inactive); with OVCAR-8, 53.1 µM (inactive); in the assay with SR, 21.1 µM (inactive); in the assay on SK-MEL-2, 21.4 µM (inactive). Besides, the GI50 with MOLT-4 was 34.5 µM (inactive); in the assay with OVCAR-5 it was > 100 µM (inactive); with RPMI-8226, 19.1 µM (inactive); in the assay with RXF 393, 29.3 µM (inactive); in the assay with HCT-15, 21.8 µM; with ACHN it was 45.5 µM (inactive). In addition, the GI50 in the assay on HT-29 is 29.3 µM (inactive); in the assay on 786-0, 45.9 µM (inactive); with SN12C it was 34.6 µM (inactive); with SK-MEL-28 it was 23.9 µM (inactive); in the assay on OVCAR-3, 65.6 µM (inactive).

For `CC(N)Cc1ccc(F)cc1` (centres undefined), the GI50 in the assay with Malme-3M, in the assay on EKVX, in the assay on NCI-H23, with OVCAR-8, in the assay on SR and in the assay on SK-MEL-2 was > 100 µM (inactive) throughout. For the same compound, the GI50 was > 100 µM (inactive) in the assay with MOLT-4; > 100 µM (inactive) in the assay on OVCAR-5; > 100 µM (inactive) in the assay with RPMI-8226; > 100 µM (inactive) with RXF 393; greater than 100 µM with HCT-15; > 100 µM (inactive) in the assay with ACHN. Also, the GI50 with HT-29, in the assay with 786-0, in the assay on SN12C, in the assay with SK-MEL-28 and in the assay on OVCAR-3 was > 100 µM (inactive) throughout.

Consider `S=C(NN=C1NCCCCN1)Nc1ccccc1`, for which the GI50 was > 100 µM (inactive) with Malme-3M; 66.4 µM (inactive) in the assay on EKVX; > 100 µM (inactive) in the assay on NCI-H23; 36 µM (inactive) in the assay with OVCAR-8; > 100 µM (inactive) in the assay with MDA-MB-231; 13.1 µM (inactive) with SR. Besides, the GI50 in the assay on MOLT-4 is 25.5 µM (inactive); in the assay on OVCAR-5 it was > 100 µM (inactive); in the assay with RPMI-8226, 9.93 µM (inactive); in the assay with HCT-15, 37.4 µM; with ACHN, 28.9 µM (inactive); in the assay on HT-29, 23 µM (inactive). Further, the GI50 in the assay with MCF7 was 31.2 µM (inactive); with 786-0 it was 39 µM (inactive); in the assay with SN12C, > 100 µM (inactive); in the assay on SK-MEL-28, 35.5 µM (inactive); in the assay with OVCAR-3 it was 40.4 µM (inactive).

Regarding `N#CC1(Cc2ccccc2)CCCCN1C(=O)c1ccccc1` (centres undefined), the GI50 in the assay with Malme-3M was > 100 µM (inactive); in the assay on EKVX, > 100 µM (inactive); in the assay on NCI-H23 it was > 100 µM (inactive); with OVCAR-8 it was > 100 µM (inactive); in the assay on SR, 44.7 µM (inactive); with SK-MEL-2, 1.42 µM (inactive). In addition, the GI50 is 74.6 µM (inactive) with MOLT-4; > 100 µM (inactive) in the assay with OVCAR-5; > 100 µM (inactive) with RPMI-8226; > 100 µM (inactive) with RXF 393; greater than 100 µM with HCT-15; > 100 µM (inactive) in the assay with ACHN. Also, the GI50 with HT-29, in the assay with 786-0, in the assay with SN12C, with SK-MEL-28 and with OVCAR-3 was > 100 µM (inactive) in each case.

Take `CC1OC(n2cc(F)c(=O)[nH]c2=O)C=CC1=O` (centres undefined): the GI50 in the assay with Malme-3M was 18.7 µM (inactive); in the assay with NCI-H23, 83 µM (inactive); in the assay on OVCAR-8 it was 20.7 µM (inactive); with SR it was 21.5 µM (inactive); with SK-MEL-2, 15.1 µM (inactive); in the assay on MOLT-4, 24.2 µM (inactive). Further, the GI50 is 16 µM (inactive) in the assay with OVCAR-5; 21 µM (inactive) with RPMI-8226; 15.5 µM (inactive) in the assay with RXF 393; 20.3 µM in the assay with HCT-15; 18 µM (inactive) with ACHN; 23 µM (inactive) in the assay with HT-29. For the same compound, the GI50 in the assay on 786-0 was 15.9 µM (inactive); with SN12C it was 16.4 µM (inactive); with SK-MEL-28 it was 17.7 µM (inactive); in the assay on OVCAR-3, 16 µM (inactive).

As to `C=CCCOC(=O)CO[N+](=O)[O-]`, the GI50 with Malme-3M, with EKVX, in the assay with NCI-H23, with OVCAR-8, in the assay on SR and in the assay with SK-MEL-2 was > 100 µM (inactive) each time. The GI50 is > 100 µM (inactive) with MOLT-4; > 100 µM (inactive) in the assay with OVCAR-5; > 100 µM (inactive) with RPMI-8226; > 100 µM (inactive) in the assay on RXF 393; greater than 100 µM with HCT-15; > 100 µM (inactive) in the assay on ACHN. The GI50 with HT-29, in the assay with 786-0, in the assay with SN12C, in the assay on SK-MEL-28 and with OVCAR-3 was > 100 µM (inactive) each time.

In the case of `CSC1NC=Nc2c1sc(=S)n2-c1ccccc1` (centres undefined), the GI50 with Malme-3M, in the assay on EKVX, in the assay on NCI-H23, in the assay with OVCAR-8, in the assay with SR and in the assay with SK-MEL-2 was > 100 µM (inactive) throughout. The GI50 with MOLT-4 is > 100 µM (inactive); with OVCAR-5, > 100 µM (inactive); in the assay with RPMI-8226, > 100 µM (inactive); in the assay with RXF 393, > 100 µM (inactive); with HCT-15 it was greater than 100 µM; in the assay on ACHN, > 100 µM (inactive). The GI50 in the assay on HT-29 was > 100 µM (inactive); in the assay on 786-0, > 100 µM (inactive); in the assay with SN12C, > 100 µM (inactive); in the assay on SK-MEL-28, > 100 µM (inactive); in the assay with OVCAR-3 it was 54.1 µM (inactive).

Take `O=C(CSc1nc2ccc(I)cc2c(=O)n1Cc1ccccc1)NN1C(=O)CSC1c1ccccc1` (centres undefined): the GI50 with EKVX was 29.2 µM (inactive); in the assay with NCI-H23 it was 18.3 µM (inactive); in the assay on OVCAR-8, 32.7 µM (inactive); in the assay on MDA-MB-231 it was 26.9 µM (inactive); in the assay with SR, 26.5 µM (inactive); in the assay with SK-MEL-2, 24.3 µM (inactive). In addition, the GI50 in the assay with MOLT-4 was 29.2 µM (inactive); in the assay with OVCAR-5 it was 53.8 µM (inactive); in the assay on RPMI-8226, 31.2 µM (inactive); in the assay with RXF 393, 25.8 µM (inactive); in the assay with HCT-15, 14.1 µM; with ACHN it was 18.2 µM (inactive). Besides, the GI50 in the assay on HT-29 was 35 µM (inactive); in the assay with MCF7, 19.2 µM (inactive); in the assay on 786-0 it was 38.3 µM (inactive); in the assay on SN12C, 23 µM (inactive); in the assay with SK-MEL-28, 30.2 µM (inactive); with OVCAR-3 it was 16.1 µM (inactive).
